Experimental data taken from DBAASP.
≈ marks a conversion by molar mass, not a printed value.

Legend:
Assay in all cases: ≥ marks a high value that may be exact or a test limit, other limits are often not marked, values filed in µg/mL are converted to µM
[1] = test system: Lacticaseibacillus casei ATCC 4646
[2] = test system: Streptococcus gordonii Challis DL1
[3] = test system: Streptococcus mitis ATCC 903
Streptococcus mutans = test system: Streptococcus mutans
[4] = test system: Streptococcus sanguinis NY101
[5] = test system: Veillonella atypica PK1910
[6] = test system: Bacillus megaterium ATCC 9885
Candida albicans = test system: Candida albicans
Clostridium perfringens = test system: Clostridium perfringens
[7] = test system: Enterobacter cloacae ATCC 11775
[8] = test system: Escherichia coli 363 ATCC 11775
Klebsiella pneumoniae = test system: Klebsiella pneumoniae
Listeria monocytogenes = test system: Listeria monocytogenes
Neisseria meningitidis = test system: Neisseria meningitidis
Pseudomonas aeruginosa = test system: Pseudomonas aeruginosa
Saccharomyces cerevisiae = test system: Saccharomyces cerevisiae
[9] = test system: Salmonella enterica subsp. enterica serovar Enteritidis
[10] = test system: Salmonella typhimurium CIP 6062
[11] = test system: Staphylococcus aureus ATCC 25923
[12] = test system: Staphylococcus haemolyticus
Streptococcus pneumoniae = test system: Streptococcus pneumoniae
Vibrio cholerae = test system: Vibrio cholerae
Escherichia coli O111 = test system: Escherichia coli O111
[13] = test system: Acinetobacter baumannii Ab1408
[14] = test system: Acinetobacter baumannii Ab5753
[15] = test system: Acinetobacter baumannii Ab5755
[16] = test system: Acinetobacter baumannii NM124
[17] = test system: Acinetobacter baumannii NM35
[18] = test system: Acinetobacter baumannii NM8
[19] = test system: Candida albicans ATCC 90028
[20] = test system: Escherichia coli ATCC 25726
Escherichia coli Ec513 = test system: Escherichia coli Ec513
[21] = test system: Klebsiella pneumoniae ATCC 700603
[22] = test system: Pseudomonas aeruginosa ATCC 27853
[23] = test system: Pseudomonas aeruginosa Pa1409
[24] = test system: Pseudomonas aeruginosa Pa4216
[25] = test system: Staphylococcus aureus Sa1390
Escherichia coli B = test system: Escherichia coli B
Salmonella typhimurium = test system: Salmonella typhimurium

Row | SMILES | MIC [1] [µM] | MIC [2] [µM] | MIC [3] [µM] | MIC (Streptococcus mutans) [µM] | MIC [4] [µM] | MIC [5] [µM] | MIC [6] [µM] | MIC (Candida albicans) [µM] | MIC (Clostridium perfringens) [µM] | MIC [7] [µM] | MIC [8] [µM] | MIC (Klebsiella pneumoniae) [µM] | MIC (Listeria monocytogenes) [µM] | MIC (Neisseria meningitidis) [µM] | MIC (Pseudomonas aeruginosa) [µM] | MIC (Saccharomyces cerevisiae) [µM] | MIC [9] [µM] | MIC [10] [µM] | MIC [11] [µM] | MIC [12] [µM] | further results
1 | NCCCC[C@H](NC(=O)[C@H](Cc1c[nH]c2ccccc12)NC(=O)[C@H](Cc1ccccc1)NC(=O)[C@H](CCCCN)NC(=O)[C@H](CCCCN)NC(=O)[C@@H](N)Cc1ccccc1)C(=O)N[C@@H](Cc1c[nH]c2ccccc12)C(=O)N[C@@H](Cc1ccccc1)C(=O)N[C@@H](CCCN=C(N)N)C(=O)N[C@@H](CCCN=C(N)N)C(=O)N[C@@H](Cc1ccccc1)C(=O)NCC(=O)NCC(=O)NCC(=O)N[C@@H](CCCN=C(N)N)C(=O)N[C@@H](Cc1c[nH]c2ccccc12)C(=O)N[C@@H](CCCN=C(N)N)C(=O)N[C@@H](Cc1c[nH]c2ccccc12)C(=O)N[C@@H](CCCN=C(N)N)C(=O)N[C@@H](Cc1c[nH]c2ccccc12)C(=O)N[C@@H](Cc1ccccc1)C(N)=O [FKKFWKWFRRFGGGRWRWRWF] | 2.65 (≈ 8 µg/mL) | 10.6 (≈ 32 µg/mL) | 21.2 (≈ 64 µg/mL) | 2.65 (≈ 8 µg/mL) | 5.3 (≈ 16 µg/mL) | 2.65 (≈ 8 µg/mL) |  |  |  |  |  |  |  |  |  |  |  |  |  |  | 
2 | CC(C)C[C@H](NC(=O)[C@H](Cc1ccccc1)NC(=O)[C@H](CCCN=C(N)N)NC(=O)[C@H](CCCCN)NC(=O)[C@@H](N)CC(C)C)C(=O)N[C@@H](CCCCN)C(=O)N[C@@H](Cc1c[nH]c2ccccc12)C(=O)N[C@@H](Cc1ccccc1)C(=O)N[C@@H](CCCCN)C(=O)N[C@@H](CCCN=C(N)N)C(=O)N[C@@H](Cc1ccccc1)C(=O)NCC(=O)NCC(=O)NCC(=O)N[C@@H](CCCN=C(N)N)C(=O)N[C@@H](Cc1c[nH]c2ccccc12)C(=O)N[C@@H](CCCN=C(N)N)C(=O)N[C@@H](Cc1c[nH]c2ccccc12)C(=O)N[C@@H](CCCN=C(N)N)C(=O)N[C@@H](Cc1c[nH]c2ccccc12)C(=O)N[C@@H](Cc1ccccc1)C(N)=O [LKRFLKWFKRFGGGRWRWRWF] | 5.49 (≈ 16 µg/mL) | 22 (≈ 64 µg/mL) | 22 (≈ 64 µg/mL) | 2.74 (≈ 8 µg/mL) | 5.49 (≈ 16 µg/mL) | 2.74 (≈ 8 µg/mL) |  |  |  |  |  |  |  |  |  |  |  |  |  |  | 
3 | CC[C@H](C)[C@H](NC(=O)[C@H](CC(C)C)NC(=O)[C@H](CO)NC(=O)[C@@H](NC(=O)[C@@H](NC(=O)[C@H](CC(C)C)NC(=O)CN)C(C)C)[C@@H](C)O)C(=O)N[C@@H](CCCCN)C(=O)NCC(=O)N[C@@H](C)C(=O)NCC(=O)N[C@@H](CCCCN)C(=O)N[C@@H](CC(C)C)C(=O)N[C@@H](CC(C)C)C(=O)NCC(=O)NCC(=O)N[C@@H](CC(C)C)C(=O)N[C@@H](Cc1ccccc1)C(=O)NCC(=O)N[C@@H](CO)C(=O)N[C@H](C(=O)N[C@H](C(=O)NCC(N)=O)[C@@H](C)O)C(C)C [GLVTSLIKGAGKLLGGLFGSVTG] |  |  |  |  |  |  | 3.15 (≈ 6.76 µg/mL) | 12.5 (≈ 26.8 µg/mL) | 25 (≈ 53.6 µg/mL) | 12.6 (≈ 26.9 µg/mL) | 6.25 (≈ 13.4 µg/mL) | 3.1 (≈ 6.65 µg/mL) | 12.5 (≈ 26.8 µg/mL) | 25 (≈ 53.6 µg/mL) | 1.5 (≈ 3.22 µg/mL) | 12.5 (≈ 26.8 µg/mL) | 1.5 (≈ 3.22 µg/mL) | 12.6 (≈ 26.9 µg/mL) | 6.25 (≈ 13.4 µg/mL) | 6.25 (≈ 13.4 µg/mL) | MIC (Streptococcus pneumoniae): 3.1 µM (≈ 6.65 µg/mL); MIC (Vibrio cholerae): 6.25 µM (≈ 13.4 µg/mL)
4 | CC[C@H](C)[C@H](NC(=O)[C@H](CO)NC(=O)[C@@H]1CCCN1C(=O)[C@H](C)NC(=O)CNC(=O)[C@H](CC(C)C)NC(=O)[C@H](CCCCN)NC(=O)[C@H](CCCN=C(N)N)NC(=O)[C@H](CCSC)NC(=O)[C@H](CCCN=C(N)N)NC(=O)[C@H](CCCN=C(N)N)NC(=O)[C@H](CCC(N)=O)NC(=O)[C@H](Cc1c[nH]c2ccccc12)NC(=O)[C@H](CCC(N)=O)NC(=O)[C@@H](N)Cc1ccc(O)cc1)C(=O)N[C@H](C(=O)O)[C@@H](C)O [YQWQRRMRKLGAPSIT] |  |  |  |  |  |  |  |  |  |  |  |  |  |  |  |  |  |  |  |  | MIC (Escherichia coli O111): ≥ 100 µM
5 | CC[C@H](C)[C@H](NC(=O)CNC(=O)[C@H](CCCCN)NC(=O)[C@@H](NC(=O)[C@H](CC(C)C)NC(=O)[C@H](CO)NC(=O)CNC(=O)[C@H](CC(C)C)NC(=O)CNC(=O)[C@H](C)NC(=O)[C@H](CCCCN)NC(=O)[C@H](Cc1ccccc1)NC(=O)[C@@H](NC(=O)[C@H](CCCCN)NC(=O)[C@H](CCCCN)NC(=O)[C@H](CC(C)C)NC(=O)CN)[C@@H](C)CC)C(C)C)C(=O)N[C@@H](C)C(=O)N[C@@H](C)C(=O)N[C@@H](Cc1cnc[nH]1)C(=O)N[C@H](C(=O)N[C@@H](C)C(=O)N[C@@H](CO)C(N)=O)C(C)C [GLKKIFKAGLGSLVKGIAAHVAS] |  |  |  |  |  |  |  |  |  |  |  |  |  |  |  |  |  |  | 250 (≈ 566 µg/mL) |  | MIC [13]: 28.2 µM (≈ 64 µg/mL); MIC [14]: 28.2 µM (≈ 64 µg/mL); MIC [15]: 3.53 µM (≈ 8 µg/mL); MIC [16]: 1.25 µM (≈ 2.83 µg/mL); MIC [17]: 5 µM (≈ 11.3 µg/mL); MIC [18]: 2.5 µM (≈ 5.66 µg/mL); MIC [19]: 20 µM (≈ 45.3 µg/mL); MIC [20]: 5 µM (≈ 11.3 µg/mL); MIC (Escherichia coli Ec513): 14.1 µM (≈ 32 µg/mL); MIC [21]: 12.5 µM (≈ 28.3 µg/mL); MIC [22]: 6 µM (≈ 13.6 µg/mL); MIC [23]: ≥ 56.5 µM; MIC [24]: 28.2 µM (≈ 64 µg/mL); MIC [25]: ≥ 56.5 µM
6 | CC(C)C[C@H](NC(=O)[C@H](CC(C)C)NC(=O)[C@H](CCCCN)NC(=O)CNC(=O)[C@H](C)NC(=O)[C@@H](NC(=O)[C@H](CCCCN)NC(=O)[C@H](CC(C)C)NC(=O)[C@H](CC(C)C)NC(=O)[C@H](CC(=O)O)NC(=O)[C@@H](NC(=O)[C@@H](NC(=O)[C@@H](NC(=O)CN)C(C)C)C(C)C)[C@@H](C)O)[C@@H](C)O)C(=O)NCC(=O)N[C@@H](CC(N)=O)C(=O)N[C@@H](CC(C)C)C(=O)N[C@@H](Cc1ccccc1)C(=O)NCC(=O)N[C@@H](CO)C(=O)N[C@@H](CC(C)C)C(=O)N[C@@H](CO)C(=O)NCC(N)=O [GVVTDLLKTAGKLLGNLFGSLSG] |  |  |  |  |  |  | ≥ 50.2 | 50 (≈ 113 µg/mL) | ≥ 100 | 12.5 (≈ 28.2 µg/mL) | 6.25 (≈ 14.1 µg/mL) | 6.25 (≈ 14.1 µg/mL) | ≥ 50 | ≥ 50 | 3.1 (≈ 7.01 µg/mL) | ≥ 100 | 3.1 (≈ 7.01 µg/mL) | 25.2 (≈ 57.1 µg/mL) | 6.25 (≈ 14.1 µg/mL) | ≥ 50 | MIC (Escherichia coli B): 12.5 µM (≈ 28.2 µg/mL); MIC (Salmonella typhimurium): 6.25 µM (≈ 14.1 µg/mL); MIC (Streptococcus pneumoniae): 12.5 µM (≈ 28.2 µg/mL); MIC (Vibrio cholerae): 25 µM (≈ 56.5 µg/mL)
